The target in one test is T1, human NK1 receptor (Homo sapiens, UniProt P25103).
T1 construct: expressed in transfected cells; host or cells: Mouse Erythroleukemia (MEL) cells
Nature of the test: SP Receptor Binding Assay (Test A). As to conditions: binding of SP at human NK1 receptor expressed in MEL cells. The source says: SP Receptor Binding Assay (Test A)
The human NK1 receptor was isolated and characterized as described in: B. Hopkins, et al. "Isolation and characterization of the human lung NK1 receptor cDNA" Biochem. Biophys. Res. Comm., 1991, 180, 1110-1117; and the NK1 receptor was expressed in Mouse Erythroleukemia (MEL) cells using a procedure similar to that described in Test B below.

Another test has as its target NK1 receptor (Oryctolagus cuniculus, UniProt G1SEI7). Nature of the test: Rabbit Pulmonary Artery: NK1 in vitro functional assay (Test C). Type of test: cell-based. As to conditions: -log molar KB against agonist ASMSP. On the procedure:
Rabbit Pulmonary Artery: NK1 in vitro functional assay (Test C)
Male New Zealand white rabbits are killed by lethal injection (Nembutal, 60 mg/kg into a cannulated ear vein). Heparin, 0.0025 ml/kg of a 1000 U/ml solution, is injected into the ear vein prior to nembutal in order to decrease blood coagulation. The left and right branches of the pulmonary artery are isolated from the rest of the lung tissue and cut in half to provide four ring segments from each animal. […] Changes in tension are measured on a Grass polygraph via Grass FT-03 force transducers. […]
Potencies of the compounds are determined by calculating the apparent dissociation constants (KB) for each concentration tested using the standard equation: KB = [antagonist]/(dose ratio - 1) [formula] where dose ratio = antilog[(agonist-log molar EC50 without compound) - (agonist-log molar EC50 with compound)]. The KB values are converted to the negative logarithms and expressed as -log molar KB (i.e. pKB). […] The EC50 values are converted to negative logarithms and expressed as -log molar EC50. Maximum relaxation responses to ASMSP are determined by expressing the maximum response to the agonist as a percentage of the relaxation caused by papaverine.

For another test, the target named is T2, NK2 (Cavia porcellus, UniProt Q64077).
T2 construct: The trachea are removed, trimmed of excess tissue (including removal of epithelium) and cut in spiral fashion; from tissue; host or cells: guinea pig trachea strips
T2 sequence (Q64077 1-402): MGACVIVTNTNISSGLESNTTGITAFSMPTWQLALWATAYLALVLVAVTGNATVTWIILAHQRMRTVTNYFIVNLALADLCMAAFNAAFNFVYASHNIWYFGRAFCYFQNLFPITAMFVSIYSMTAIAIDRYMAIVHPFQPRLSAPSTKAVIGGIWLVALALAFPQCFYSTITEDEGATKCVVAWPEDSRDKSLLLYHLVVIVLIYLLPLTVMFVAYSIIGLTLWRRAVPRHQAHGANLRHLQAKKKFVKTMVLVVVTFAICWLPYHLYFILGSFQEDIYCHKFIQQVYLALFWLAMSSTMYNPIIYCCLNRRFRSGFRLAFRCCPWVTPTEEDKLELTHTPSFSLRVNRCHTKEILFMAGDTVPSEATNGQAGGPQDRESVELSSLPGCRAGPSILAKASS
Nature of the test: Guinea Pig Trachea Assay: NK2 in vitro functional assay (Test D). Type of test: cell-based. As to conditions: -log molar KB against agonist BANK. Here is the method: Guinea Pig Trachea Assay: NK2 in vitro functional assay (Test D)
Male guinea pigs are killed by a sharp blow to the back of the head followed by exsanguination. The trachea are removed, trimmed of excess tissue (including removal of epithelium) and cut in spiral fashion. Each longitudinally cut tracheal segment is suspended as a strip in a water-jacketed (37.5°C) tissue bath containing a physiological salt solution of the following composition (mM): NaCl, 119; KCl 4.6; CaCl2, 1.8; MgCl2, 0.5; NaH2PO4, 1; NaHCO3, 25; glucose, 11; and indomethacin, 0.005 (to inhibit cyclooxygenase); gassed continuously with 95% O2-%5 CO2. […] Contractile responses are measured on a Grass polygraph via Grass FT-03 force transducers. […]
Potencies of the compounds are evaluated by calculating apparent dissociation constants (KB) for each concentration tested using the standard equation: KB = [antagonist]/(dose ratio-1) [formula] where dose ratio = antilog[(agonist -log molar EC50 without compound) - (agonist-log molar EC50 with compound)]. The KB values are converted to the negative logarithms and expressed as -log molar KB (i.e. pKB). […] The EC50 values are converted to the negative logarithms and expressed as -log molar EC50. Maximum contractile responses to BANK are determined by expressing the maximum response to BANK as a percentage of the initial contraction caused by capasacin.

A further test deals with T3, human NK2 receptor (Homo sapiens, UniProt P21452).
T3 sequence (P21452 1-398): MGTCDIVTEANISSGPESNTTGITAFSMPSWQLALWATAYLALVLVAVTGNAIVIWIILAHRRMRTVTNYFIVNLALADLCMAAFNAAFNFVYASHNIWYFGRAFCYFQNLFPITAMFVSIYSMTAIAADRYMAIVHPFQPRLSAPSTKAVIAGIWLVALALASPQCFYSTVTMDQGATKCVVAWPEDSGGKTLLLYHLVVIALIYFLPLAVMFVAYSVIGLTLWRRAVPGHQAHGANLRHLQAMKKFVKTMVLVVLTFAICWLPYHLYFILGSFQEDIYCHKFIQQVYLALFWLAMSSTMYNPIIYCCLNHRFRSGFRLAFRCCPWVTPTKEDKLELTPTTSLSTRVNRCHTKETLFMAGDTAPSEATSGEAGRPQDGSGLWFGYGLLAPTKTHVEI

As usually defined, the Ki is a measure of affinity in units of concentration, obtained from inhibition or displacement. In general, pKB refers to the negative decadic logarithm of the KB, by convention in mol/L.

Chain of NK1 receptor (G1SEI7 1-407): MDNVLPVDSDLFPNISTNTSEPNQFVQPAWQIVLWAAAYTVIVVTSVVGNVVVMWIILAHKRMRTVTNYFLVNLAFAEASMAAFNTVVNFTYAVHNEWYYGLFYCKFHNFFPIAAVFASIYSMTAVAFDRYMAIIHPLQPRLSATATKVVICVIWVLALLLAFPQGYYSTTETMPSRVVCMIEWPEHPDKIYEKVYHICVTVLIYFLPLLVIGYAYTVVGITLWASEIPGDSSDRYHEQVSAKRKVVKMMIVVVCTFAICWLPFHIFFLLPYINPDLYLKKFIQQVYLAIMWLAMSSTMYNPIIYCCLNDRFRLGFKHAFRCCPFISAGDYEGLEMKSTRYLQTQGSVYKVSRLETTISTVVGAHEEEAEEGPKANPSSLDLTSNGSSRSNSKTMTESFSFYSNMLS
T1 sequence (P25103 whole entry): as the sequence (G1SEI7 1-407) above, with F12S, D189N, A369P, E371D, N376T, G386C, N391D, Y402S, M405V counted along it

With `O=C(CC(CCN1CCC(O)(c2ccccc2)CC1)c1ccc(Cl)c(Cl)c1)NCc1ccccc1` (stereo not shown) [Example 1, N-Benzyl-5-(4-hydroxy-4-phenylpiperidino)-3-(3,4-dichlorophenyl)pentanamide], the Ki on human NK1 receptor was determined as 0.03 µM; on human NK2 receptor it was 0.015 µM. The same compound returned a pKB at NK1 receptor of 5.41. For the same compound, the Kb at NK2 was 0.794 µM.

The values above are taken from EP0808303B1, “5-(4-SUBST.-PIPERIDINYL-1)-3-ARYL-PENTANOIC ACID DERIVATIVES AS TACHYKININ RECEPTOR ANTAGONIST” (AstraZeneca AB, priority 1995, dated 1996).
